Source: ChEMBL document CHEMBL1146670, “Structure based design of a series of potent and selective non peptidic PTP-1B inhibitors” (Bioorg Med Chem Lett, 2004)

Key:
[1] = biological target: T1, Receptor-type tyrosine-protein phosphatase C (Homo sapiens, UniProt P08575); experiment: Inhibitory activity against CD45 protein-tyrosine phosphatase
T1 sequence (P08575 whole entry): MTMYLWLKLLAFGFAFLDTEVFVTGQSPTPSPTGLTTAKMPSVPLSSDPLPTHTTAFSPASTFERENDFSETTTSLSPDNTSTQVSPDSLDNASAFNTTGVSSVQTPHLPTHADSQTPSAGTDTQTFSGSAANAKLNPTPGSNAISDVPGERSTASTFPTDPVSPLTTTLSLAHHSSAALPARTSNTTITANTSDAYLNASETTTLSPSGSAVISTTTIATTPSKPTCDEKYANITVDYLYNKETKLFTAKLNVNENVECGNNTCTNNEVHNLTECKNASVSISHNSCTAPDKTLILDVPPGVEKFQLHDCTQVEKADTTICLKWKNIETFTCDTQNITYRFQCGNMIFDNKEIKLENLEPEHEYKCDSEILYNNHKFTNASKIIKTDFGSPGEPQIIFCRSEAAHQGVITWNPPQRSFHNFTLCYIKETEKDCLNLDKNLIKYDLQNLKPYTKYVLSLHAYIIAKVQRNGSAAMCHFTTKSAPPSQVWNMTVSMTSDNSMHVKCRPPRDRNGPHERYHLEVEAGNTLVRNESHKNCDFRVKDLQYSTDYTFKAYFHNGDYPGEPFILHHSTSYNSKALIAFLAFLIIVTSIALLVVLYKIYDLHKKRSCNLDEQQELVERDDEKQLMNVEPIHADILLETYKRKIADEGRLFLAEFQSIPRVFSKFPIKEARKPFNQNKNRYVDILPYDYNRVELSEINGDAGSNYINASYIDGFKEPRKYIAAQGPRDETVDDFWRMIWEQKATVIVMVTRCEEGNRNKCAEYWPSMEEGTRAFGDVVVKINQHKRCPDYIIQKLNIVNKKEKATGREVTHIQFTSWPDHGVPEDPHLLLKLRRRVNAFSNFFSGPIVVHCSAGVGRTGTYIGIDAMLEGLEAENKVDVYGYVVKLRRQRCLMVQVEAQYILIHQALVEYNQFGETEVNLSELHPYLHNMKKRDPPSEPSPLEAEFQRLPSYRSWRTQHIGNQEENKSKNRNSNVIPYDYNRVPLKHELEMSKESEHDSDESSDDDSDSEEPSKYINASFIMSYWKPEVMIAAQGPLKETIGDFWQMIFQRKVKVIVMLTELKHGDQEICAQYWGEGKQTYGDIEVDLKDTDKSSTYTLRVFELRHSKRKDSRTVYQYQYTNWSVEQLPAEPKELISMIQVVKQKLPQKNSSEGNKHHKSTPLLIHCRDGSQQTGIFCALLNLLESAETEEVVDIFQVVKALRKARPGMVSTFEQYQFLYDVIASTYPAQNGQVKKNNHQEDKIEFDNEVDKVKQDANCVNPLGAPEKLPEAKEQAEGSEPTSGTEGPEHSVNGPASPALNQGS

[2] = biological target: T2, Tyrosine-protein phosphatase non-receptor type 2 (Homo sapiens, UniProt P17706); experiment: Inhibitory activity against T cell protein tyrosine phosphatase; format: cell-based
T2 sequence (P17706 whole entry): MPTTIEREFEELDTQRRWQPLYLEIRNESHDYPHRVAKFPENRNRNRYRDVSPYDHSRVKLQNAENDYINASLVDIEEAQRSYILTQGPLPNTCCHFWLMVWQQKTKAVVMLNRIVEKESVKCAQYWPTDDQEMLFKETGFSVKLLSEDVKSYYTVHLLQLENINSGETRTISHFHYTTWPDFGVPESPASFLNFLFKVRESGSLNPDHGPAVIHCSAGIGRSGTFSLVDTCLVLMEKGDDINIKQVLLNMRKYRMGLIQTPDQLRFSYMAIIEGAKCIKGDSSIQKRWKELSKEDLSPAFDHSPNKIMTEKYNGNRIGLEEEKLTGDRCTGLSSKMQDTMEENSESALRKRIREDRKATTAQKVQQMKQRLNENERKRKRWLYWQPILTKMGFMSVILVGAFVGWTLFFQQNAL

[3] = biological target: T3, Tyrosine-protein phosphatase non-receptor type 1 (Homo sapiens, UniProt P18031); experiment: Inhibitory activity against protein tyrosine phosphatase 1B (PTP1B) was determined in fluorescein diphosphate (FDP) assay
T3 sequence (P18031 whole entry): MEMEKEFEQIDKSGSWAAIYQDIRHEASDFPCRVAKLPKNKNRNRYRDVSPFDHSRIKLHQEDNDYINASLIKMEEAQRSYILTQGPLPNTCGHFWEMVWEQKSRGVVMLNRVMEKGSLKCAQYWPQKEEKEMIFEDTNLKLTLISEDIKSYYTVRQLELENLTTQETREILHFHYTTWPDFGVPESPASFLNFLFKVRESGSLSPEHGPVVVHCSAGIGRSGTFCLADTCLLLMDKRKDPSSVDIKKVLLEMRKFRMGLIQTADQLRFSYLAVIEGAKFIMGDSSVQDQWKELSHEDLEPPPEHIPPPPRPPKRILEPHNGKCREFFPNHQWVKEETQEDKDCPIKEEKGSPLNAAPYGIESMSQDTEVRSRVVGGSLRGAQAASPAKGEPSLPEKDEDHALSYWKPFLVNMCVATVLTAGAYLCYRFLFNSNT

[4] = biological target: T3, Tyrosine-protein phosphatase non-receptor type 1; experiment: Inhibitory activity against Protein tyrosine phosphatase 1B (PTP1B) over-expressed in intact Sf9 cell assay

| SMILES | IC50 [1] [nM] | IC50 [2] [nM] | IC50 [3] [nM] | IC50 [4] [nM] |
| --- | --- | --- | --- | --- |
| O=P(O)(O)C(F)(F)c1ccc(CC(Cc2ccc(C(F)(F)P(=O)(O)O)cc2)(c2ccc(F)c(F)c2)n2nnc3ccccc32)cc1 | 50000 | 8 | – | – |
| O=C(OCc1ccccc1)C(Cc1ccc(C(F)(F)P(=O)(O)O)cc1)(c1ccccc1)n1nnc2ccccc21 (stereo unspecified) | 50000 | 290 | 240 | 1700 |
| O=P(O)(O)C(F)(F)c1ccc(CC(Cc2ccc(C(F)(F)P(=O)(O)O)c(Br)c2)(c2ccccc2)n2nnc3ccccc32)cc1 (stereo unspecified) | 25000 | 4 | 5 | 160 |
| O=P(O)(O)C(F)(F)c1ccc(CC(Cc2ccc(-c3ccccc3)cc2)(c2ccccc2)n2nnc3ccccc32)cc1 (stereo unspecified) | 69000 | – | – | 1600 |
| Cc1ccc2cc(-c3ccc(CC(Cc4ccc(C(F)(F)P(=O)(O)O)cc4)(c4ccccc4)n4nnc5ccccc54)cc3)cc(P(=O)(O)O)c2n1 (stereo unspecified) | 50000 | – | – | 220 |
| COC(=O)c1ccc(C(Cc2ccc(C(F)(F)P(=O)(O)O)cc2)(Cc2ccc(C(F)(F)P(=O)(O)O)cc2)n2nnc3ccccc32)cc1 | 50000 | 16 | 11 | 84 |
| O=P(O)(O)c1cccc(-c2ccc(CC(Cc3ccc(C(F)(F)P(=O)(O)O)cc3)(c3ccccc3)n3nnc4ccccc43)cc2)c1 (stereo unspecified) | 50000 | – | – | – |
| O=P(O)(O)C(F)(F)c1ccc(CC(Cc2ccc(C(F)(F)P(=O)(O)O)cc2)(c2ccc3ccccc3n2)n2nnc3ccccc32)cc1 | 50000 | 28 | 20 | 62 |
| O=P(O)(O)C(F)(F)c1ccc(/C=C/CC(Cc2ccc(C(F)(F)P(=O)(O)O)cc2)(c2ccccc2)n2nnc3ccccc32)cc1 (stereo unspecified) | 50000 | 10 | 16 | 120 |
| O=P(O)(O)C(F)(F)c1ccc(CC(Cc2ccc(C(F)(F)P(=O)(O)O)cc2)(c2ccccc2)n2nnc3ccccc32)cc1 | 50000 | 10 | – | 120 |
| O=P(O)(O)C(F)(F)c1ccc(CC(Cc2ccc(-c3ccccc3-c3nn[nH]n3)cc2)(c2ccccc2)n2nnc3ccccc32)cc1 (stereo unspecified) | 50000 | 85 | 74 | 370 |
| O=P(O)(O)C(F)(F)c1ccc(CC(C/C=C/c2ccccc2)(c2ccccc2)n2nnc3ccccc32)cc1 (stereo unspecified) | 50000 | 49 | 49 | 460 |
| O=P(O)(O)C(F)(F)c1ccc(CC(Cc2ccc(C(F)(F)P(=O)(O)O)cc2)(c2nnn[nH]2)n2nnc3ccccc32)cc1 | 7200 | 16 | 32 | 1200 |
| O=P(O)(O)C(F)(F)c1ccc(CC(Cc2ccc(C(F)(F)P(=O)(O)O)cc2)(c2nc3ccccc3s2)n2nnc3ccccc32)cc1 | 11000 | 20 | 18 | 88 |
| NS(=O)(=O)c1ccccc1-c1ccc(CC(Cc2ccc(C(F)(F)P(=O)(O)O)cc2)(c2ccccc2)n2nnc3ccccc32)cc1 (stereo unspecified) | 50000 | 82 | 69 | 930 |
| O=P(O)(O)C(F)(F)c1ccc(CC(CCCc2ccccc2)(c2ccccc2)n2nnc3ccccc32)cc1 (stereo unspecified) | 30000 | 72 | 46 | 650 |
| O=P(O)(O)C(F)(F)c1ccc(CC(Cc2ccc(Br)cc2)(c2ccccc2)n2nnc3ccccc32)cc1 (stereo unspecified) | 17000 | 92 | 89 | 1600 |
| O=P(O)(O)C(F)(F)c1ccc(CC(c2ccccc2)n2nnc3ccccc32)cc1 (stereo unspecified) | > 50000 | 7260 | 8040 | – |
| O=P(O)(O)C(F)(F)c1ccc(CC(Cc2ccc(OCc3ccccc3)cc2)(c2ccccc2)n2nnc3ccccc32)cc1 (stereo unspecified) | 64000 | 62 | 98 | 4070 |
| O=P(O)(O)C(F)(F)c1ccc(CC(Cc2ccc(C(F)(F)P(=O)(O)O)cc2)(c2nc(-c3ccccc3)cs2)n2nnc3ccccc32)cc1 | 50000 | 18 | 19 | 190 |
| COC(CC(C)C)c1ccc2cc(-c3ccc(CC(Cc4ccc(C(F)(F)P(=O)(O)O)cc4)(c4ccccc4)n4nnc5ccccc54)cc3)cc(P(=O)(O)O)c2n1 (stereo in doubt; 21a) | 50000 | – | – | – |
| COC(CC(C)C)c1ccc2cc(-c3ccc(CC(Cc4ccc(C(F)(F)P(=O)(O)O)cc4)(c4ccccc4)n4nnc5ccccc54)cc3)cc(P(=O)(O)O)c2n1 (stereo in doubt; 21b) | 50000 | 41 | – | – |
| COC(CC(C)C)c1ccc2cc(-c3ccc(CC(Cc4ccc(C(F)(F)P(=O)(O)O)cc4)(c4ccccc4)n4nnc5ccccc54)cc3)cc(P(=O)(O)O)c2n1 (stereo in doubt; 21c) | 50000 | 1130 | – | – |
| COC(CC(C)C)c1ccc2cc(-c3ccc(CC(Cc4ccc(C(F)(F)P(=O)(O)O)cc4)(c4ccccc4)n4nnc5ccccc54)cc3)cc(P(=O)(O)O)c2n1 (stereo in doubt; 21d) | 32000 | 930 | – | – |
